Source: patent US10294202B2, “Pyrrolidinones as herbicides” (FMC Corporation, priority 2013, dated 2019)

How the values were obtained:
kochia = experiment: Test A pre-/postemergence herbicide test; assay type: in vivo, Kochia scoparia
Procedure, shortened: (§1)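 Scoring was visual, relative to untreated controls, on a 0–100 scale after about 10 greenhouse days. Preemergence treatment used a directed soil spray over seeded loam/sand; postemergence treatment targeted one- to two-leaf plants of 2–10 cm.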

galium = experiment: Test A postemergence herbicide test; assay type: in vivo, Galium aparine
Procedure, shortened: (§2)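 Blackgrass and galium grown in pots of loam soil–sand blend, treated postemergence at 2–10 cm height, one- to two-leaf stage. Plants kept in greenhouse ~10 days, then visually rated for injury against untreated controls on a 0–100 scale (0 no effect, 100 complete control).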

ducksalad = experiment: Test B flooded paddy test; assay type: in vivo, Heteranthera limosa; conditions: 500 g ai/ha, Flood; scale of 0 to 100 where 0 is no effect and 100 is complete control
Procedure, shortened: (§3)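 Treatment was made at the 2-leaf stage by dosing the standing floodwater, kept 3 cm above soil level for the whole test. Greenhouse exposure lasted 13 to 15 days. Response is a visual percent rating relative to controls, where a dash indicates no test result.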

barnyardgrass [1] = experiment: Test A pre-/postemergence herbicide test; assay type: in vivo, Echinochloa crus-galli
Procedure, shortened: as §1

rice = experiment: Test B flooded paddy test; assay type: in vivo, Oryza sativa; conditions: 500 g ai/ha, Flood; scale of 0 to 100 where 0 is no effect and 100 is complete control
Procedure, shortened: as §3

ragweed = experiment: Test A pre-/postemergence herbicide test; assay type: in vivo, Ambrosia elatior
Procedure, shortened: as §1

ryegrass, Italian = experiment: Test A pre-/postemergence herbicide test; assay type: in vivo, Lolium multiflorum
Procedure, shortened: as §1

sedge, umbrella = experiment: Test B flooded paddy test; assay type: in vivo, Cyperus difformis; conditions: 500 g ai/ha, Flood; scale of 0 to 100 where 0 is no effect and 100 is complete control
Procedure, shortened: as §3

corn = experiment: Test A pre-/postemergence herbicide test; assay type: in vivo, Zea mays; conditions: Postemergence
Procedure, shortened: as §1

barnyardgrass [2] = experiment: Test B flooded paddy test; assay type: in vivo, Echinochloa crus-galli; conditions: 500 g ai/ha, Flood; scale of 0 to 100 where 0 is no effect and 100 is complete control
Procedure, shortened: as §3

giant foxtail = experiment: Test A pre-/postemergence herbicide test; assay type: in vivo, Setaria faberii
Procedure, shortened: as §1

wheat = experiment: Test A pre-/postemergence herbicide test; assay type: in vivo, Triticum aestivum; conditions: Postemergence
Procedure, shortened: as §1

pigweed = experiment: Test A pre-/postemergence herbicide test; assay type: in vivo, Amaranthus retroflexus
Procedure, shortened: as §1

blackgrass = experiment: Test A postemergence herbicide test; assay type: in vivo, Alopecurus myosuroides
Procedure, shortened: as §2

[3] = 125 g ai/ha, visual rating, 0 to 100 scale, 0 no effect, 100 complete control, approximately 10 days, preemergence
[4] = Postemergence, 125 g ai/ha, 0 to 100 scale, 0 no effect, 100 complete control
[5] = preemergence, 500 g ai/ha, 0 to 100 scale
[6] = 125 g ai/ha, 0 to 100 scale, 0 no effect, 100 complete control
[7] = Postemergence, 125 g ai/ha, visual rating on 0 to 100 scale (0 no effect, 100 complete control), approx. 10 days
[8] = Postemergence, 500 g ai/ha, 0 to 100 scale (0 no effect, 100 complete control)
[9] = Preemergence, 125 g ai/ha, 0 to 100 scale where 0 is no effect and 100 is complete control
[10] = Preemergence, 500 g ai/ha, visual rating on 0 to 100 scale (0 no effect, 100 complete control)
[11] = 125 g ai/ha, visual rating on 0 to 100 scale (0 no effect, 100 complete control), approx. 10 days
[12] = 500 g ai/ha, 0 to 100 scale (0 no effect, 100 complete control)

COc1cc(C2CNC(=O)C2C(=O)Nc2ccc(F)cc2F)ccc1F (racemic) [Compound 131]
Plant response rating, Kochia (kochia; [3]): 0 | Plant response rating, Kochia (kochia; [4]): 0 | Kochia plant response rating (0 to 100 scale, 0 is no effect, 100 is complete control) (kochia; Postemergence, 500 g ai/ha): 0 | Plant response rating, Kochia (kochia; [5]): 0 | Plant response rating, Galium (galium; [6]): 0 | Galium plant response rating (0 to 100 scale, 0 is no effect, 100 is complete control) (galium; 500 g ai/ha): 0 | Plant response rating, Ducksalad (ducksalad): 70 | Plant response rating, Barnyardgrass (barnyardgrass [1]; [3]): 50 | Plant response rating, Barnyardgrass (barnyardgrass [1]; [4]): 50 | Barnyardgrass plant response rating (0 to 100 scale, 0 is no effect, 100 is complete control) (barnyardgrass [1]; Postemergence, 500 g ai/ha): 60 | Plant response rating, Barnyardgrass (barnyardgrass [1]; preemergence, 500 g ai/ha, 0 to 100 scale (0 no effect, 100 complete control)): 60 | Plant response rating, Rice (rice): 0 | Plant response rating, Ragweed (ragweed; [3]): 0 | Plant response rating, Ragweed (ragweed; [4]): 0 | Ragweed plant response rating (0 to 100 scale, 0 is no effect, 100 is complete control) (ragweed; Postemergence, 500 g ai/ha): 0 | Plant response rating, Ragweed (ragweed; [5]): 0 | Plant response rating, Ryegrass, Italian (ryegrass, Italian; [3]): 0 | Plant response rating, Ryegrass, Italian (ryegrass, Italian; [4]): 0 | Ryegrass, Italian plant response rating (0 to 100 scale, 0 is no effect, 100 is complete control) (ryegrass, Italian; Postemergence, 500 g ai/ha): 0 | Plant response rating, Ryegrass, Italian (ryegrass, Italian; [5]): 0 | Plant response rating, Sedge, Umbrella (sedge, umbrella): 30 | Plant response rating, Corn (corn; [6]): 0 | Corn plant response rating (0 to 100 scale, 0 is no effect, 100 is complete control) (corn; 500 g ai/ha): 0 | Plant response rating, Barnyardgrass (barnyardgrass [2]): 40 | Plant response rating, Foxtail, Giant (giant foxtail; [3]): 50 | Plant response rating, Foxtail, Giant (giant foxtail; [4]): 50 | Foxtail, Giant plant response rating (0 to 100 scale, 0 is no effect, 100 is complete control) (giant foxtail; Postemergence, 500 g ai/ha): 50 | Plant response rating, Foxtail, Giant (giant foxtail; [5]): 60 | Plant response rating, Wheat (wheat; [6]): 0 | Wheat plant response rating (0 to 100 scale, 0 is no effect, 100 is complete control) (wheat; 500 g ai/ha): 0 | Plant response rating, Pigweed (pigweed; [3]): 0 | Plant response rating, Pigweed (pigweed; [4]): 0 | Pigweed plant response rating (0 to 100 scale, 0 is no effect, 100 is complete control) (pigweed; Postemergence, 500 g ai/ha): 0 | Plant response rating, Pigweed (pigweed; [5]): 0 | Plant response rating, Blackgrass (blackgrass; [6]): 0 | Blackgrass plant response rating (0 to 100 scale, 0 is no effect, 100 is complete control) (blackgrass; 500 g ai/ha): 0

O=C1NCC(c2cccc(-n3ccc(C(F)(F)F)n3)c2)C1C(=O)Nc1cccc(F)c1F (stereo not drawn) [Compound 326]
Plant response rating, Kochia (kochia; [7]): 0 | Plant response rating, Kochia (kochia; [8]): 30 | Plant response rating, Kochia (kochia; [9]): 40 | Kochia plant response rating (kochia; [10]): 50 | Plant response rating, Galium (galium; [11]): 0 | Plant response rating, Galium (galium; [12]): 0 | Plant response rating, Ducksalad (ducksalad): 0 | Plant response rating, Barnyardgrass (barnyardgrass [1]; [7]): 0 | Plant response rating, Barnyardgrass (barnyardgrass [1]; [8]): 20 | Plant response rating, Barnyardgrass (barnyardgrass [1]; [9]): 0 | Barnyardgrass plant response rating (barnyardgrass [1]; [10]): 30 | Plant response rating, Rice (rice): 0 | Plant response rating, Ragweed (ragweed; [7]): 0 | Plant response rating, Ragweed (ragweed; [8]): 0 | Plant response rating, Ragweed (ragweed; [9]): 0 | Ragweed plant response rating (ragweed; [10]): 0 | Plant response rating, Ryegrass, Italian (ryegrass, Italian; [7]): 0 | Plant response rating, Ryegrass, Italian (ryegrass, Italian; [8]): 0 | Plant response rating, Ryegrass, Italian (ryegrass, Italian; [9]): 0 | Ryegrass, Italian plant response rating (ryegrass, Italian; [10]): 40 | Plant response rating, Sedge, Umbrella (sedge, umbrella): 0 | Plant response rating, Corn (corn; [11]): 0 | Plant response rating, Corn (corn; [12]): 0 | Plant response rating, Barnyardgrass (barnyardgrass [2]): 0 | Plant response rating, Foxtail, Giant (giant foxtail; [7]): 20 | Plant response rating, Foxtail, Giant (giant foxtail; [8]): 50 | Plant response rating, Foxtail, Giant (giant foxtail; [9]): 50 | Foxtail, Giant plant response rating (giant foxtail; [10]): 60 | Plant response rating, Wheat (wheat; [11]): 0 | Plant response rating, Wheat (wheat; [12]): 0 | Plant response rating, Pigweed (pigweed; [7]): 0 | Plant response rating, Pigweed (pigweed; [8]): 0 | Plant response rating, Pigweed (pigweed; [9]): 0 | Pigweed plant response rating (pigweed; [10]): 0 | Plant response rating, Blackgrass (blackgrass; [11]): 0 | Plant response rating, Blackgrass (blackgrass; [12]): 0

O=C1NCC(c2ccc(Br)c(Br)c2)C1C(=O)Nc1ccc(F)c(F)c1F (stereo not drawn) [Compound 342]
Plant response rating, Kochia (kochia; [7]): 20 | Plant response rating, Kochia (kochia; [9]): 0 | Kochia plant response rating (kochia; [10]): 0 | Plant response rating, Galium (galium; [11]): 0 | Plant response rating, Ducksalad (ducksalad): 0 | Plant response rating, Barnyardgrass (barnyardgrass [1]; [7]): 30 | Plant response rating, Barnyardgrass (barnyardgrass [1]; [8]): 60 | Plant response rating, Barnyardgrass (barnyardgrass [1]; [9]): 50 | Barnyardgrass plant response rating (barnyardgrass [1]; [10]): 80 | Plant response rating, Rice (rice): 0 | Plant response rating, Ragweed (ragweed; [7]): 0 | Plant response rating, Ragweed (ragweed; [9]): 0 | Ragweed plant response rating (ragweed; [10]): 0 | Plant response rating, Ryegrass, Italian (ryegrass, Italian; [7]): 0 | Plant response rating, Ryegrass, Italian (ryegrass, Italian; [9]): 0 | Ryegrass, Italian plant response rating (ryegrass, Italian; [10]): 20 | Plant response rating, Sedge, Umbrella (sedge, umbrella): 0 | Plant response rating, Corn (corn; [11]): 0 | Plant response rating, Corn (corn; [12]): 40 | Plant response rating, Barnyardgrass (barnyardgrass [2]): 0 | Plant response rating, Foxtail, Giant (giant foxtail; [7]): 40 | Plant response rating, Foxtail, Giant (giant foxtail; [8]): 50 | Plant response rating, Foxtail, Giant (giant foxtail; [9]): 70 | Foxtail, Giant plant response rating (giant foxtail; [10]): 90 | Plant response rating, Wheat (wheat; [11]): 0 | Plant response rating, Pigweed (pigweed; [7]): 0 | Plant response rating, Pigweed (pigweed; [9]): 0 | Pigweed plant response rating (pigweed; [10]): 50 | Plant response rating, Blackgrass (blackgrass; [11]): 0 | Plant response rating, Blackgrass (blackgrass; [12]): 0
